Laboratory results reported in PMC12525784, “Novel Azaborine-Based Inhibitors of Histone Deacetylases (HDACs)” (Molecules, 2025).

How the values were obtained:
Assay type in all cases: biochemical
HDAC8 = biological target: T1, HDAC8 (Homo sapiens, UniProt Q9BY41); assay: HDAC8 enzymatic activity assay (dose-response, Boc-Lys(Tfa)-AMC); settings: 10 nM HDAC8, 20 µM Boc-Lys(Tfa)-AMC; triplicate, mean ± SD
T1 construct: made in house
T1 sequence (Q9BY41 1-377): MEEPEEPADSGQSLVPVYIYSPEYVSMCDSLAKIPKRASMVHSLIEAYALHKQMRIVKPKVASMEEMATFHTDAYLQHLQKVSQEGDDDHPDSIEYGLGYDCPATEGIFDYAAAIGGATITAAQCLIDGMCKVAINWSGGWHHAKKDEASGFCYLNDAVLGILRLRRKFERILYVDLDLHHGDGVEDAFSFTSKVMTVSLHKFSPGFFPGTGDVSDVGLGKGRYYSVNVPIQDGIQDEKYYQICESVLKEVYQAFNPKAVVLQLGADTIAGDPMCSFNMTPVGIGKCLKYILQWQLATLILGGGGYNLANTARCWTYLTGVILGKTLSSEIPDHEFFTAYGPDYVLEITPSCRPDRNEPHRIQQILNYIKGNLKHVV
Experimental: (§1) Enzymatic activity assays for compound screening and dose–response analysis were performed as previously described. […] For dose–response curves, serial inhibitor dilutions were incubated with 40 nM HDAC1 (BPS Bioscience, San Diego, CA, USA), 1 nM HDAC4, or 10 nM HDAC8. […] All IC50 determinations were performed in triplicate, and the results are expressed as mean values ± standard deviation (SD). HDAC4 and HDAC8 were produced according to previously reported protocols. HDAC1 was purchased from BPS Bioscience (San Diego, CA, USA). Boc-Lys(Tfa)-AMC and trypsin were purchased from Bachem (Bubendorf, Switzerland) and AppliChem (Darmstadt, Germany), respectively.

HDAC1 = biological target: T2, HDAC1 (Homo sapiens, UniProt Q13547); assay: HDAC1 enzymatic activity assay (dose-response, Boc-Lys(Ac)-AMC); settings: 40 nM HDAC1, 50 µM Boc-Lys(Ac)-AMC; triplicate, mean ± SD
T2 construct: purchased BPS Bioscience
T2 sequence (Q13547 whole entry): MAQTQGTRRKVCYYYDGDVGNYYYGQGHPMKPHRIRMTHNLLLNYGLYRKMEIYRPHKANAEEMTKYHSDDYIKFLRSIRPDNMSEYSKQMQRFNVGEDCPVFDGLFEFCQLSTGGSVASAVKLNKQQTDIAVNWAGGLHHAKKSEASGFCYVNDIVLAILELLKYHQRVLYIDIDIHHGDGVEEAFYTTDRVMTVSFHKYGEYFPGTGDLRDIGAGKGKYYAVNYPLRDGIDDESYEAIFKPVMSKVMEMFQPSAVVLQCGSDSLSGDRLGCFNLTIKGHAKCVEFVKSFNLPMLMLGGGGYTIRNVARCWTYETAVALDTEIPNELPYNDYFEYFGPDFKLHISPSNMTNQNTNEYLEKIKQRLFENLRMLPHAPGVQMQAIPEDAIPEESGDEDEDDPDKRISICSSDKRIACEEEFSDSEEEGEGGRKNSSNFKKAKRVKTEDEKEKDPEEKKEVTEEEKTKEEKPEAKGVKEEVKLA
Experimental: Enzymatic activity assays for compound screening and dose–response analysis were performed as previously described. In brief, compounds were screened at 35 µM using 1 nM HDAC4 and 10 nM HDAC8, respectively. For dose–response curves, serial inhibitor dilutions were incubated with 40 nM HDAC1 (BPS Bioscience, San Diego, CA, USA), 1 nM HDAC4, or 10 nM HDAC8. Reactions were initiated with 20 µM Boc-Lys(Tfa)-AMC (HDAC4/8) or 50 µM Boc-Lys(Ac)-AMC (HDAC1) and terminated with 0.4 mg/mL trypsin ([…]) and 1.7 µM SATFMK (HDAC4/8) or 4.2 µM SAHA (HDAC1). All IC50 determinations were performed in triplicate, and the results are expressed as mean values ± standard deviation (SD). HDAC4 and HDAC8 were produced according to previously reported protocols. HDAC1 was purchased from BPS Bioscience (San Diego, CA, USA). Boc-Lys(Tfa)-AMC and trypsin were purchased from Bachem (Bubendorf, Switzerland) and AppliChem (Darmstadt, Germany), respectively.

HDAC4 = biological target: T3, HDAC4 (Homo sapiens, UniProt P56524); assay: HDAC4 enzymatic activity assay (dose-response, Boc-Lys(Tfa)-AMC); settings: 1 nM HDAC4, 20 µM Boc-Lys(Tfa)-AMC; triplicate, mean ± SD
T3 construct: made in house
T3 sequence (P56524 whole entry): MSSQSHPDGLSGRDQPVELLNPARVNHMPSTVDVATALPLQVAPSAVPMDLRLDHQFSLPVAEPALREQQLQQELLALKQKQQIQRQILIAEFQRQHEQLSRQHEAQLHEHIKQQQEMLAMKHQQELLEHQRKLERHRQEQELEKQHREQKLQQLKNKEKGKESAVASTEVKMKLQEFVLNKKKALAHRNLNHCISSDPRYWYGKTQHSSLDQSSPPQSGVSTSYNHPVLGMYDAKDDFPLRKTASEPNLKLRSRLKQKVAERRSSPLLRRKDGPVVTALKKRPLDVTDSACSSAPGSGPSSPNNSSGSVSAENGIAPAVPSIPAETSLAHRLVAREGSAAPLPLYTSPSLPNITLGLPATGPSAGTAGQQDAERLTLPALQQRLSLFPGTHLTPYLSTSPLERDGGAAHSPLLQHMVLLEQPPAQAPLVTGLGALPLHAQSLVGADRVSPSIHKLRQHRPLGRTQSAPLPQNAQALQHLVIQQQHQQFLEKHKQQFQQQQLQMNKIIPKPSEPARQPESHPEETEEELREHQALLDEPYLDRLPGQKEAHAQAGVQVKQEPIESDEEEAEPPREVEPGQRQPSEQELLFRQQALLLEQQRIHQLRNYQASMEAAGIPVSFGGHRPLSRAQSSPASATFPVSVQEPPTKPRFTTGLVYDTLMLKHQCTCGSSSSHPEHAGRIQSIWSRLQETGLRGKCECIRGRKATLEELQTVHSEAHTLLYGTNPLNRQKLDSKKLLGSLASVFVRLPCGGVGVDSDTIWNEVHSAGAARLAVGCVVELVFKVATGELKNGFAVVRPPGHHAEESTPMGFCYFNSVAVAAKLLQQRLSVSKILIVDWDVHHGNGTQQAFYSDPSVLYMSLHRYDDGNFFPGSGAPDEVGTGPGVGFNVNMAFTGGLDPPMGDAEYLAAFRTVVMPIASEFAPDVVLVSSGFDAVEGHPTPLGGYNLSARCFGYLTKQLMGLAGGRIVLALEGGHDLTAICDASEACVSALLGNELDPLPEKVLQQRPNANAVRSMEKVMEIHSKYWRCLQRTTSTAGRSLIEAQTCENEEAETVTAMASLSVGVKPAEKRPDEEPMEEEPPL
Experimental: as §1

| IC50 (HDAC8) | IC50 (HDAC1) | IC50 (HDAC4) | Structure (SMILES) |
| --- | --- | --- | --- |
| > 35 µM | > 35 µM | > 35 µM | Nc1ccccc1NC(=O)CCCCc1cn(CB2C=Cc3ccccc3N2)nn1 [Compound 8] |
| 20 ± 3 µM | > 35 µM | 16.8 ± 1.6 µM | Nc1ccccc1NC(=O)c1cn(CB2C=Cc3ccccc3N2)nn1 [Compound 9] |
| 19 ± 5 µM | > 35 µM | 8.08 ± 1.59 µM | Nc1ccccc1NC(=O)CCCc1cn(CB2C=Cc3ccccc3N2)nn1 [Compound 10] |
| > 35 µM | > 35 µM | > 35 µM | O=C(CCc1cn(CB2C=Cc3ccccc3N2)nn1)NO [Compound 11] |
| 6.2 ± 3.4 µM | > 35 µM | 13.8 ± 4.3 µM | O=C(CCCCc1cn(CB2C=Cc3ccccc3N2)nn1)NO [Compound 12] |
| 3.3 ± 1.7 µM | > 35 µM | 23.1 ± 4.9 µM | O=C(CCCc1cn(CB2C=Cc3ccccc3N2)nn1)NO [Compound 13] |
| > 35 µM | > 35 µM | > 35 µM | Nc1cc(F)ccc1NC(=O)CCc1cn(CB2C=Cc3ccccc3N2)nn1 [Compound 14] |
| > 35 µM | > 35 µM | > 35 µM | Nc1cc(F)ccc1NC(=O)CCCCc1cn(CB2C=Cc3ccccc3N2)nn1 [Compound 15] |
| > 35 µM | > 35 µM | 14.7 ± 1.7 µM | O=C(CCCCCCC(=O)OCB1C=Cc2ccccc2N1)NO [Compound 16d] |
| 15 ± 3 µM | 8.2 ± 2.5 µM | 16.5 ± 1 µM | Nc1ccccc1NC(=O)CCCCCCC(=O)OCB1C=Cc2ccccc2N1 [Compound 17] |
| 0.52 ± 0.11 µM | 8.2 ± 1.8 µM | > 35 µM | O=C(/C=C/c1ccc(C(=O)NO)cc1)OCB1C=Cc2ccccc2N1 [Compound 18] |
| > 35 µM | > 35 µM | > 35 µM | O=C(CCCC(=O)OCB1C=Cc2ccccc2N1)NO [Compound 19] |
| > 35 µM | > 35 µM | > 35 µM | Nc1cc(F)ccc1NC(=O)c1cccc(C(=O)OCB2C=Cc3ccccc3N2)c1 [Compound 20] |
| > 35 µM | > 35 µM | > 35 µM | Nc1ccccc1NC(=O)c1cccc(C(=O)OCB2C=Cc3ccccc3N2)c1 [Compound 21] |
| > 35 µM | > 35 µM | > 35 µM | Nc1ccccc1NC(=O)CCSCCC(=O)OCB1C=Cc2ccccc2N1 [Compound 22] |
| 0.44 ± 0.07 µM | 1.88 ± 0.11 µM | 7.3 ± 1.7 µM | O=C(NO)c1cccc(C(=O)OCB2C=Cc3ccccc3N2)c1 [Compound 23] |
| > 35 µM | 9.3 ± 2.3 µM | > 35 µM | O=C(CCCCCCNCB1C=Cc2ccccc2N1)NO [Compound 24] |
| > 35 µM | > 35 µM | 17 ± 3 µM | O=C(NO)c1cccc(NCB2C=Cc3ccccc3N2)c1 [Compound 25] |
| > 35 µM | > 35 µM | > 35 µM | Nc1cc(F)ccc1NC(=O)c1ccc(CNCB2C=Cc3ccccc3N2)cc1 [Compound 26] |
| > 35 µM | > 35 µM | > 35 µM | O=C(NO)c1cccc(CNCB2C=Cc3ccccc3N2)c1 [Compound 27] |
| 0.2 ± 0.02 µM | 0.975 ± 0.394 µM | 1.35 ± 0.18 µM | O=C(NO)c1cccc(B2Nc3ccccc3N2)c1 [Compound 30] |
| > 35 µM | > 35 µM | > 35 µM | Nc1ccccc1NC(=O)c1cccc(B2Nc3ccccc3N2)c1 [Compound 31] |
| > 35 µM | > 35 µM | > 35 µM | Nc1cc(F)ccc1NC(=O)c1cccc(B2Nc3ccccc3N2)c1 [Compound 32] |
| > 35 µM | > 35 µM | > 35 µM | O=C(NO)c1ccc(B2Nc3ccccc3N2)cc1 [Compound 35] |
